From PMC9822940, “Antiplasmodial activity, structure–activity relationship and studies on the action of novel benzimidazole derivatives” (Scientific Reports, 2023) come the findings set out here.

pIC50: −log10 of the molar value.

One series relates to P. falciparum HB3 strain. As to the kind of experiment: Antiplasmodial activity against P. falciparum HB3 strain in culture. It counts as cell-based, Plasmodium falciparum. To be noted: for pIC50 / inhibition at 10 µM: Plasmodium falciparum; for pIC50: HB3 strain (chloroquine-sensitive), read-out: IC50; for inhibition at 10 µM: HB3 strain, read-out: GI (growth inhibition percentage); for SI (selectivity index): Vero CC50 versus HB3 IC50. Here is the method:
(§1) In vitro activity of BZ. All BZ derivatives were tested at 10 μM against the HB3 strain of Pf, and for those compounds with a percentage of growth inhibition (% GI) higher than 50%, the IC50 values were determined. In addition, their cytotoxicity on epithelial Vero cell cultures was evaluated to calculate their selectivity indexes (SI), Table 1. An index of 10 or above is expected for a lead compound.
(§2) The chloroquine-sensitive […] and chloroquine-resistance 7G8 strain […] of P. falciparum were used throughout. Infected erythrocytes were kept in culture using the protocol established by Haynes et al.[44], basically utilizing human O^+ erythrocytes kept in an RPMI medium supplemented with glutamine and 10% human serum incubated in an atmosphere of 90% N2, 5% O2 and 5% CO2.

The nature of series [1]: Cytotoxicity on epithelial Vero cell cultures. The format is cell-based. To be noted: African green monkey, epithelial Vero cells. Here is the method:
as §1

Series [2] relates to 7G8 P. falciparum parasites. As to the kind of experiment: Antiplasmodial activity against chloroquine-resistant 7G8 P. falciparum. It counts as cell-based, Plasmodium falciparum. The conditions noted are these: for pIC50: Plasmodium falciparum, 7G8 strain (chloroquine-resistant), read-out: 7G8 Pf IC50; for SI (selectivity index): Vero CC50 versus 7G8 IC50.
From the text: (§3) The mechanism used by Pf to prevent intoxication with free heme once hemoglobin is degraded is to form hemozoin crystals that capture heme. Mefloquine and other common antimalarials interfere with this pathway, resulting in the death of the parasite.
as §2

In series [3] the test system is plasma membrane of parasite culture / erythrocytes. Put plainly: Propidium iodide incorporation assay (membrane integrity). The format is cell-based, Plasmodium falciparum. To be noted: 3 h incubation, fluorometry. Here is the method: The integrity of the plasma membrane under the action of certain antiplasmodial compounds was assessed through the use of two methodologies. First, the absorption of propidium iodide, to which intact membranes are impermeable, was measured. Second, the presence of heme in the culture media, which indicates a leakage of the contents of the erythrocyte or its complete lysis (hemolysis), was analyzed.
Figure 3 Membrane integrity tests. BZ 1, 5, 16, 26 and 33 were tested in triplicates in two independent experiments. (a) Incorporation of propidium iodide (PI) was analyzed through fluorometry after 3 h incubation with the compounds. (b) Hemolysis was measured by light absorbance 24 h after exposure to the compounds. One-way ANOVA with Turkey´s comparison was used for analysis of significance. ****p < 0.001.
Manufacturer’s instructions (BD PharmingenTM) were followed. Briefly, 200 µL of parasite culture at 2% parasitemia or uninfected erythrocytes, at 2% hematocrit, were incubated with each compound for 3 h at 37 °C. Untreated samples were cultured in the same plate. After incubation, 2 µL of Propidium Iodide was added and incubated for 15 min at RT while protected from light. Fluorescence was read in a fluorometer at excitation and emission wavelengths of 485/20 and 645/40 nm, respectively.

Series [4] deals with P. falciparum-infected cultures. Put plainly: Intracellular reactive oxygen species (ROS) production in P. falciparum. It counts as cell-based, Plasmodium falciparum. To be noted: 1 µM; 0.5, 6 and 9 h. The procedure: Also, the intracellular production of oxygen reactive species (ROS) was monitored for the same antiplasmodial compounds. The level of ROS production was compared between the samples and that of the untreated parasites. […] This would point to the conformation of such molecules targeting a specific molecule or process of the parasite.  Figure 4 Effect of selected benzimidazole derivatives on ROS production. Five potent compounds were incubated with P. falciparum-infected cultures and the production of reactive oxygen species was measured through fluorometry at 0.5, 6 and 9 h after their addition at 1 µM. As positive control, a sample containing hydrogen peroxide at 200 μM was added. Samples were measured in triplicates. One-way ANOVA with Turkey´s comparison was used to measure significance with respect to the untreated control at each different time point. n = 2. (a) BZ 1, (b) BZ 5, (c) BZ 16, (d) BZ 26 and (e) BZ 33. *p < 0.05, **p < 0.01, ***p < 0.005. Intracellular ROS formation was measured in a fluorimeter using the CM-H2DCFDA reactive dye from Molecular Probes® (Eugene OR, USA). Hydrogen peroxide was used as a positive control at a final concentration of 200 µM. The level of ROS present was inferred through the amount of oxidized DCF[45].

For series [5], the system named is mitochondria of P. falciparum parasites. Put plainly: Mitochondrial membrane potential measurement. The format is cell-based, Plasmodium falciparum. To be noted: 1 µM. The procedure:
Changes in mitochondrial membrane potential, another common hallmark of programed cell death, were analyzed in the samples that had promising activities toward P. falciparum cultures. The results of adding 1 µM of each compound can be seen in Fig. 5. […] This could probably be explained by the presence of the unsubstituted picolinamide fragment, therefore more polar and less soluble in the membrane, making it harder or slower to permeate into the erythrocyte and then into the parasite, with respect to the other three.  Figure 5 Changes to mitochondrial membrane potential caused by antiplasmodial compounds. Fluorometry was used to measure the effects on the mitochondria of P. falciparum parasites caused by treatment with compounds that show activity against their growth in culture. A membrane disruptor (CCCP) was added as a positive control and untreated cultures were used as the negative one. All compounds were tested at 1 µM in triplicates, n = 3. (a) BZ 1, (b) BZ 5, (c) BZ 16, (d) BZ 26 and (e) BZ 33. *p < 0.05, **p < 0.01, ***p < 0.005. The membrane potential was measured in a flow cytometer after staining P. falciparum cultures with the DiOC6(3) dye at 10 nM (Thermo Fisher, Waltham, MA, USA). Samples were incubated for 45 min at 37 °C in the dark. Following incubation, cells were washed and resuspended using 200 µL of phosphate-buffered saline (PBS) and analyzed immediately after. The mitochondrial membrane disrupter, CCCP (50 µM), incubated for 1 h, was used as a positive control. The fluorescence intensity of stained cells was calculated using FCS Express 4 (De Novo Software, Glendale, CA, USA). As negative control, uninfected red blood cells were used and their signal was subtracted from that of the infected red blood cells.

The test system of series [6] is hemozoin biocrystallization in P. falciparum. As to the kind of experiment: Hemozoin biocrystallization / beta-hemozoin formation. It counts as cell-based, Plasmodium falciparum. To be noted: Pf cultures, 36 h.
From the text: as §3

The pIC50 is −log10 of the IC50, conventionally taken in molar units. By inhibition is commonly meant the percentage by which the read-out fell short of the control. The term CC50 denotes the concentration giving 50% cytotoxicity. The low end stands for greater toxicity to the cells, the high end for lower toxicity to the cells. Consider `Cc1ccc2[nH]c(NC(=O)c3ccccn3)nc2c1` [BZ 1, N-(5-methyl-1H-benzimidazol-2-yl)picolinamide], for which, in the series on P. falciparum HB3 strain, the pIC50 was 6.01 and the inhibition at 10 µM is 93.5%. Also, half-maximal cytotoxicity in series [1] (CC50) was put at 14800 nM. Further, in series [2], the pIC50 was 6.02 and the “SI (selectivity index)” value is listed as 15.6. For the same compound, in series [3], the “Membrane integrity: incorporation of propidium iodide” value (from here on “Membrane integrity: incorporation”) is “best in keeping the membrane well preserved”. Besides, in series [4], the “Intracellular ROS production versus untreated parasites” value is reported as “early significant decrease in the natural level of ROS”. For the same compound, the “Change in mitochondrial membrane potential versus untreated control” value (“Change” below) in series [5] was “do not show a difference with the untreated control up to t = 6 h”.

One may read the melting point as the temperature of the solid-liquid transition. As for `Cc1ccc(C(=O)Nc2nc3cc(C)ccc3[nH]2)nc1` [BZ 5, 5-Methyl-N-(5-methyl-1H-benzimidazol-2-yl)picolinamide], the melting point amounted to 256 °C. In addition, in the series on P. falciparum HB3 strain, the pIC50 is 5.82 and the inhibition at 10 µM came out at 100%. This compound yielded a 50% cytotoxic concentration (CC50) in series [1] of 4500 nM. Moreover, the “Membrane integrity: incorporation” value in series [3] is given as “some permeation in the membrane, although not significant”. Besides, the “Intracellular ROS production versus untreated parasites” value in series [4] was “no significant difference at any point”.

Turning to `Cc1ccc(C(=O)Nc2nc3cc(Cl)ccc3[nH]2)nc1` [BZ 16, N-(5-Chloro-1H-benzimidazol-2-yl)-5-methylpicolinamide], in the series on P. falciparum HB3 strain, the pIC50 was 5.62, the inhibition at 10 µM was found to be 85.6% and the “SI (selectivity index)” value was determined as 3.0. Also, in series [1], half-maximal cytotoxicity (CC50) was put at 7200 nM. In addition, in series [2], the pIC50 was 5.59 and the “SI (selectivity index)” value is recorded as 2.7. Also, in series [3], the “Membrane integrity: incorporation” value is “some permeation in the membrane, although not significant”. In addition, in series [4], the “Intracellular ROS production versus untreated parasites” value was “no significant difference at any point”. For the same compound, the “Interference with hemozoin biocrystallization” value in series [6] is given as “small level of disruption”.

`COc1ccc2[nH]c(NC(=O)c3ccc(C)cn3)nc2c1` [BZ 26, N-(5-Methoxy-1H-benzimidazol-2-yl)-5-methylpicolinamide]: in the series with P. falciparum HB3 strain, the pIC50 is 5.48, the inhibition at 10 µM amounted to 93.5% and the “SI (selectivity index)” value is on record as 3.4. The compound further showed a CC50 in series [1] of 11100 nM. The “Membrane integrity: incorporation” value in series [3] is given as “some permeation in the membrane, although not significant”. In series [4], the “Intracellular ROS production versus untreated parasites” value is given as “no significant difference at any point”. Moreover, the “Change” value in series [5] was “shows an effect from t = 6 h onward”.

As for `Cc1cc2nc(NC(=O)c3ccccn3)[nH]c2cc1C` [BZ 33, N-(5,6-Dimethyl-1H-benzimidazol-2-yl)picolinamide], in the series with P. falciparum HB3 strain, the pIC50 is 6.07 and the inhibition at 10 µM was determined as 100%. The compound also registered a CC50 in series [1] of 13200 nM. In series [3], the “Membrane integrity: incorporation” value is reported as “best in keeping the membrane well preserved”. For the same compound, the “Intracellular ROS production versus untreated parasites” value in series [4] is reported as “early significant decrease in the natural level of ROS”. In addition, the “Change” value in series [5] was “do not show a difference with the untreated control up to t = 6 h”.
